Results taken from PubChem BioAssay AID1963965 (Molecular Pharmacology Branch, DTP, NCI, 2024).

Test system: 996289-038-R-J1-PDC spheroid viability
Experiment: Anticancer human tumor 996289-038-R-J1-PDC patient-derived colon adenocarcinoma cell line growth inhibition [PI3K]
Settings: spheroids with HUVEC and MSC; for viability, T/C: stronger effect = lower value; active = viability on the fitted dose curve at most 10% of control; inactive = the rest
Outline: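 Multi-cell spheroids combine tumor cells with HUVEC and human MSCs, treated with targeted agents alone or with inavolisib, alpelisib, duvelisib or copanlisib. Concentrations fall in half-log steps from at or near clinical Cmax, or from 10 microM where Cmax is unknown; viability read-out.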

[1] = curve of first compound, second compound 0.0316 µM
[2] = curve of first compound, second compound 0.1 µM
[3] = curve of first compound, second compound 0.316 µM
[4] = curve of first compound, second compound 1 µM
[5] = curve of first compound, second compound 3.16 µM
[6] = curve of first compound, second compound 10 µM
[7] = second compound 0.0316 µM, first compound 0.000316 µM
[8] = second compound 0.0316 µM, first compound 0.001 µM
[9] = second compound 0.0316 µM, first compound 0.00316 µM
[10] = second compound 0.0316 µM, first compound 0.01 µM
[11] = second compound 0.0316 µM, first compound 0.0316 µM
[12] = second compound 0.0316 µM, first compound 0.1 µM
[13] = second compound 0.1 µM, first compound 0.000316 µM
[14] = second compound 0.1 µM, first compound 0.001 µM
[15] = second compound 0.1 µM, first compound 0.00316 µM
[16] = second compound 0.1 µM, first compound 0.01 µM
[17] = second compound 0.1 µM, first compound 0.0316 µM
[18] = second compound 0.1 µM, first compound 0.1 µM
[19] = second compound 0.316 µM, first compound 0.000316 µM
[20] = second compound 0.316 µM, first compound 0.001 µM
[21] = second compound 0.316 µM, first compound 0.00316 µM
[22] = second compound 0.316 µM, first compound 0.01 µM
[23] = second compound 0.316 µM, first compound 0.0316 µM
[24] = second compound 0.316 µM, first compound 0.1 µM
[25] = second compound 1 µM, first compound 0.000316 µM
[26] = second compound 1 µM, first compound 0.001 µM
[27] = second compound 1 µM, first compound 0.00316 µM
[28] = second compound 1 µM, first compound 0.01 µM
[29] = second compound 1 µM, first compound 0.0316 µM
[30] = second compound 1 µM, first compound 0.1 µM
[31] = second compound 3.16 µM, first compound 0.000316 µM
[32] = second compound 3.16 µM, first compound 0.001 µM
[33] = second compound 3.16 µM, first compound 0.00316 µM
[34] = second compound 3.16 µM, first compound 0.01 µM
[35] = second compound 3.16 µM, first compound 0.0316 µM
[36] = second compound 3.16 µM, first compound 0.1 µM
[37] = second compound 10 µM, first compound 0.000316 µM
[38] = second compound 10 µM, first compound 0.001 µM
[39] = second compound 10 µM, first compound 0.00316 µM
[40] = second compound 10 µM, first compound 0.01 µM
[41] = second compound 10 µM, first compound 0.0316 µM
[42] = second compound 10 µM, first compound 0.1 µM
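Note: spheroids exposed to compounds for seven days before viability read.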
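Throughout, for viability, T/C: luminescence used as a proxy for viable cell amount; percent viability relative to DMSO vehicle control as 100%.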

CC(=O)c1c(C)c2cnc(Nc3ccc(N4CCNCC4)cn3)nc2n(C2CCCC2)c1=O + Cc1nc(NC(=O)N2CCCC2C(N)=O)sc1-c1ccnc(C(C)(C)C(F)(F)F)c1
> 100 nM: IC50 [1] | IC50 [2] | IC50 [3] | IC50 [4] | IC50 [5]
< 0.316 nM: IC50 [6]
inactive: viability, T/C [7] 99.8% | viability, T/C [8] 83.4% | viability, T/C [9] 89.9% | viability, T/C [10] 86.4% | viability, T/C [11] 110% | viability, T/C [12] 99.8% | viability, T/C [13] 111% | viability, T/C [14] 88.9% | viability, T/C [15] 107% | viability, T/C [16] 91.7% | viability, T/C [17] 94.7% | viability, T/C [18] 81.6% | viability, T/C [19] 81.5% | viability, T/C [20] 78.1% | viability, T/C [21] 80% | viability, T/C [22] 80.2% | viability, T/C [23] 86.4% | viability, T/C [24] 77.7% | viability, T/C [25] 77.7% | viability, T/C [26] 74.5% | viability, T/C [27] 69.2% | viability, T/C [28] 69.7% | viability, T/C [29] 85.2% | viability, T/C [30] 66.7% | viability, T/C [31] 60.1% | viability, T/C [32] 57.9% | viability, T/C [33] 62.7% | viability, T/C [34] 61.7% | viability, T/C [35] 57.9% | viability, T/C [36] 48% | viability, T/C [37] 45.4% | viability, T/C [38] 40.6% | viability, T/C [39] 36.6% | viability, T/C [40] 39.9% | viability, T/C [41] 47.4% | viability, T/C [42] 36.8%

CCCS(=O)(=O)Nc1ccc(F)c(C(=O)c2c[nH]c3ncc(-c4ccc(Cl)cc4)cc23)c1F
inactive: viability, T/C (compound 0.0316 µM) 106% [middle of 4 runs] | viability, T/C (compound 0.1 µM) 93.7% [middle of 4 runs] | viability, T/C (compound 0.316 µM) 100% [middle of 4 runs] | viability, T/C (compound 1 µM) 94.5% [middle of 4 runs] | viability, T/C (compound 3.16 µM) 96.8% [middle of 4 runs] | viability, T/C (compound 10 µM) 23.3% [middle of 4 runs]
6.53 µM [middle of 4 runs]: IC50 (curve of compound)

CC(C)n1nc(-c2ccc3oc(N)nc3c2)c2c(N)ncnc21
58.6 nM [middle of 4 runs]: IC50 (curve of compound)
inactive: viability, T/C (compound 0.000316 µM) 105% [middle of 4 runs] | viability, T/C (compound 0.001 µM) 85.2% [middle of 4 runs] | viability, T/C (compound 0.00316 µM) 89.4% [middle of 4 runs] | viability, T/C (compound 0.01 µM) 88.6% [middle of 4 runs] | viability, T/C (compound 0.0316 µM) 67% [middle of 4 runs] | viability, T/C (compound 0.1 µM) 35.7% [middle of 4 runs]

CC(C)n1nc(-c2ccc3oc(N)nc3c2)c2c(N)ncnc21 + CC(Nc1ncnc2nc[nH]c12)c1cc2cccc(Cl)c2c(=O)n1-c1ccccc1
64.9 nM: IC50 [3]
62.9 nM: IC50 [6]
58 nM: IC50 [4]
62 nM: IC50 [2]
inactive: viability, T/C [7] 107% | viability, T/C [8] 88.6% | viability, T/C [9] 97.6% | viability, T/C [10] 86.7% | viability, T/C [11] 82.7% | viability, T/C [12] 42.3% | viability, T/C [13] 124% | viability, T/C [14] 96.5% | viability, T/C [15] 96.1% | viability, T/C [16] 95.8% | viability, T/C [17] 70.8% | viability, T/C [18] 34.5% | viability, T/C [19] 105% | viability, T/C [20] 87.4% | viability, T/C [21] 84.6% | viability, T/C [22] 87.3% | viability, T/C [23] 73.9% | viability, T/C [24] 36.2% | viability, T/C [25] 98.4% | viability, T/C [26] 97.9% | viability, T/C [27] 85.9% | viability, T/C [28] 84.6% | viability, T/C [29] 65.7% | viability, T/C [30] 35.9% | viability, T/C [31] 87.5% | viability, T/C [32] 87.5% | viability, T/C [33] 86.2% | viability, T/C [34] 89.5% | viability, T/C [35] 76.8% | viability, T/C [36] 38.9% | viability, T/C [37] 85% | viability, T/C [38] 82% | viability, T/C [39] 82.9% | viability, T/C [40] 79% | viability, T/C [41] 68.8% | viability, T/C [42] 37.2%
71.7 nM: IC50 [5]
80.1 nM: IC50 [1]
